# Experimental data reported in PubChem BioAssay (NCI).
#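 At the GI50, growth is halved. Definition used: TGI = concentration required for complete inhibition of growth.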
# Tests used:
# Assay in all cases: inhibition of tumour cell growth, NCI panel, 384-well format
# [1] = system: IGROV1 ovarian
# [2] = system: SF-539 CNS
# [3] = system: UO-31 renal
# [4] = system: HOP-92 NSCLC
# [5] = system: SF-295 CNS
# [6] = system: EKVX NSCLC
# [7] = system: OVCAR-8 ovarian
# [8] = system: CAKI-1 renal
# [9] = system: SK-MEL-5 melanoma
# [10] = system: A498 renal
# [11] = system: NCI-H23 lung
# [12] = system: SNB-75 CNS
# [13] = system: M14 melanoma
# [14] = system: ACHN renal
# [15] = system: PC-3 prostate
# [16] = system: OVCAR-4 ovarian
# [17] = system: K-562 leukemia
# [18] = system: NCI-H322M lung
# [19] = system: NCI-H522 lung
# [20] = system: TK-10 renal
# [21] = system: MOLT-4 leukemia
# [22] = system: SK-MEL-2 melanoma
# [23] = system: OVCAR-5 ovarian
# [24] = system: U251 glioblastoma
# [25] = system: CCRF-CEM leukemia
# [26] = system: MALME-3M melanoma
# [27] = system: DU-145 prostate
# [28] = system: MDA-MB-231 breast
# [29] = system: HS 578T breast
# [30] = system: HT29 colon
# [31] = system: KM12 colon
# [32] = system: SK-OV-3 ovarian
# [33] = system: A549 NSCLC
# [34] = system: NCI-H226 lung
# [35] = system: NCI/ADR-RES ovarian
# [36] = system: BT-549 breast
# [37] = system: SK-MEL-28 melanoma
# [38] = system: HL-60(TB) leukemia
# [39] = system: SN12C renal
# [40] = system: RXF 393 renal
# [41] = system: SR leukemia
# [42] = system: MCF7 breast
# [43] = system: NCI-H460 NSCLC
# [44] = system: SW-620 colon
# [45] = system: SF-268 CNS
# [46] = system: LOX IMVI melanoma
# [47] = system: UACC-257 melanoma
smiles,measurement,setting,value
CCc1c(C#N)c(SC(C(N)=O)c2ccccc2)nc(N2CCC(N)CC2)c1C#N (centres undefined),GI50,[1],15 µM
same,TGI,[1],28.3 µM
same,GI50,[2],6.59 µM
same,TGI,[2],19.3 µM
same,GI50,[3],18.1 µM
same,TGI,[3],33 µM
same,GI50,[4],13 µM
same,TGI,[4],25.7 µM
same,GI50,[5],13.2 µM
same,TGI,[5],26 µM
same,GI50,[6],15.4 µM
same,TGI,[6],28.8 µM
same,GI50,[7],15.6 µM
same,TGI,[7],29.1 µM
same,GI50,[8],13 µM
same,TGI,[8],25.8 µM
same,GI50,[9],11 µM
same,TGI,[9],23 µM
same,GI50,[10],12.9 µM
same,TGI,[10],25.6 µM
same,GI50,[11],11.5 µM
same,TGI,[11],23.7 µM
same,GI50,[12],14.9 µM
same,TGI,[12],28.2 µM
same,GI50,[13],10.4 µM
same,TGI,[13],22.2 µM
same,GI50,[14],14.9 µM
same,TGI,[14],28.2 µM
same,GI50,[15],11.2 µM
same,TGI,[15],23.4 µM
same,GI50,[16],13.7 µM
same,TGI,[16],26.6 µM
same,GI50,[17],5.63 µM
same,TGI,[17],18.3 µM
same,GI50,[18],15.9 µM
same,TGI,[18],29.4 µM
same,GI50,[19],8.33 µM
same,TGI,[19],20.9 µM
same,GI50,[20],17.5 µM
same,TGI,[20],31.4 µM
same,GI50,[21],4.95 µM
same,TGI,[21],15.4 µM
same,GI50,[22],12 µM
same,TGI,[22],24.4 µM
same,GI50,[23],16.1 µM
same,TGI,[23],29.6 µM
same,GI50,[24],12.5 µM
same,TGI,[24],25.1 µM
same,GI50,[25],6.52 µM
same,TGI,[25],19 µM
same,GI50,[26],4.17 µM
same,TGI,[26],16.9 µM
same,GI50,[27],3.33 µM
same,TGI,[27],12.4 µM
same,GI50,[28],16.2 µM
same,TGI,[28],29.8 µM
same,GI50,[29],14.4 µM
same,TGI,[29],27.6 µM
same,GI50,[30],16.9 µM
same,TGI,[30],30.7 µM
same,GI50,[31],11.2 µM
same,TGI,[31],23.4 µM
same,GI50,[32],17.9 µM
same,TGI,[32],31.9 µM
same,GI50,[33],14.4 µM
same,TGI,[33],27.7 µM
same,GI50,[34],12.4 µM
same,TGI,[34],25 µM
same,GI50,[35],66.6 µM
same,TGI,[35],> 100 µM
same,GI50,[36],10.3 µM
same,TGI,[36],22.1 µM
same,GI50,[37],7.46 µM
same,TGI,[37],20.1 µM
same,GI50,[38],2.29 µM
same,TGI,[38],9.95 µM
same,GI50,[39],11.5 µM
same,TGI,[39],23.7 µM
same,GI50,[40],16.2 µM
same,TGI,[40],29.8 µM
same,GI50,[41],3.45 µM
same,TGI,[41],11.8 µM
same,GI50,[42],5.36 µM
same,TGI,[42],17.7 µM
same,GI50,[43],11.2 µM
same,TGI,[43],23.5 µM
same,GI50,[44],14.7 µM
same,TGI,[44],28.1 µM
same,GI50,[45],13.5 µM
same,TGI,[45],26.4 µM
same,GI50,[46],11.4 µM
same,TGI,[46],23.7 µM
same,GI50,[47],2.22 µM
same,TGI,[47],5.18 µM
